Entries after “also recorded” stand apart in the source; their conditions may differ.
Tests used:
[1] = tested on: rats with TBI induced by CCI in fronto-parietal and temporo-parietal cortex; assay: Hippocampal DTI measures (MD, FA laterality index) after TBI induced by CCI; format: in vivo, rat; details: for in vivo hippocampal FA laterality index (LRI): fast and slow kindling strains, strain by treatment interaction p=0.088, saline vs 2DG at 1 month p=0.08; for change in in vivo ipsilateral hippocampal MD between 1 week and 6 months: paired t-test: saline p=0.0026, 2DG p=0.289, treatment by time interaction p=0.064
Description: (§1) “Fast” rats and “slow” rats from the 9th-11th generations selected by these procedures were subjected to TBI induced by the method of controlled cortical impact (CCI) using published protocols (see Dixon et al., 1991, J. Neuro. Meth. 39: 253-262). During the induction of TBI by CCI, the rats were deeply anesthetized with isoflurane (3% for induction, 1.5-2.5% for maintenance) and were placed in a stereotaxic frame. After craniotomy with the dura intact, anesthesia was reduced to 1% isoflurane for a 5-min equilibration period and CCI was performed over temporo-parietal cortex (−1 to −6 mm from bregma, below lateral skull ridge) and fronto-parietal cortex (+5.3 to −0.3 mm from bregma, below lateral skull ridge), which are more and less likely, respectively, to damage the hippocampus and amygdala. Brain lesions were induced by a digitally-controlled contusion device using a pneumatically driven impactor with a sterilized rounded stainless steel tip (3-4 mm in diameter) which compresses the cortex with a specified velocity, depth, and dwell time varied to induce a range of injury severity (ranging from mild, with parameters of 4.0 m/s, 1.0 mm deformation, dwell time 50 mS, to severe, at 6.0 m/s, 2.5 mm deformation, dwell time 50 mS). Anesthesia was then administered at maintenance levels (1.5-2.5%), the craniotomy and wound were closed, and the rats were allowed to recover. The location, severity, and progression of induced cortical and subcortical damage was examined by serial in vivo magnetic resonance imaging (MRI) and diffusion tensor imaging (DTI) techniques at 1 week, 1 month, and 6 months after TBI.
(§2) The effects of 2DG on TBI induced by CCI in fronto-parietal and temporo-parietal cortex were evaluated in “fast” kindling-susceptible and “slow” kindling-resistant rats. Half of the rats from these strains received 2DG at 40 mg/kg IP 30 min prior to CCI, and then 250 mg/kg immediately after and twice daily for 2 weeks. These rats were compared to control groups with TBI induced by CCI that were treated only with an equivalent volume of saline. Both treatment groups were also compared to sham-injured rats that underwent all aspects of the experimental manipulations except for CCI.
The effects of 2DG treatment on the location, severity, and progression of induced cortical and subcortical damage were assessed in serial in vivo magnetic resonance imaging (MRI) and diffusion tensor imaging (DTI) studies at 1 week, 1 month, and 6 months after TBI as well as high-resolution ex vivo DTI of brains harvested from the same rats following the final in vivo imaging session. DTI is an advanced MRI modality that offers a unique view of the brain in its ability to report quantitative microstructural information at the whole-brain and in vivo scales. The most commonly reported DTI indices are fractional anisotropy (FA), which characterizes the “directionalness” of tissue structure (e.g. high in white matter and low in grey matter and CSF) and mean diffusion (MD), which characterizes water status (“free” or “restricted”) due to cellular barriers (e.g. high in CSF and low in tissue). Both indices are known to be sensitive to damage and other structural changes such as tissue/circuit reorganization. This makes DTI an attractive modality to investigate disorders with known or hypothesized structural abnormalities such as TBI.
MRI scanning was performed using a Varian 4.7 T scanner and a quadrature birdcage volume coil was used to transmit and receive the MRI signal. […]

[2] = tested on: rats with TBI induced by CCI in fronto-parietal and temporo-parietal cortex; assay: Corpus callosum and fornix DTI (FA) after TBI induced by CCI; format: in vivo, rat; details: for ex vivo corpus callosum (CC) FA: CCI location by treatment interaction p=0.038, fronto-parietal CCI
Description: as §1, §2
(§3) The effects of 2DG treatment on the location, severity, and progression of induced cortical and subcortical damage were assessed in serial in vivo magnetic resonance imaging (MRI) and diffusion tensor imaging (DTI) studies at 1 week, 1 month, and 6 months after TBI as well as high-resolution ex vivo DTI of brains harvested from the same rats following the final in vivo imaging session. DTI is an advanced MRI modality that offers a unique view of the brain in its ability to report quantitative microstructural information at the whole-brain and in vivo scales. […]

[3] = Mattson, 1999; cited from earlier work
rats [4] = details: perforant path and olfactory bulb stimulation in rats; Garriga-Canut et al., 2006; Stafstrom et al., 2009; cited from earlier work
rats [5] = details: rat, in vivo, 250 mg/kg
Protocol: For example, dosage amount and interval of 2-DG administration can be adjusted individually to reduce incidence, frequency, duration or intensity of deleterious sequellae of TBI, particularly PTE, using doses of 40 mg/kg or less to higher as tolerated to reduce seizure frequency and minimize toxicity. […] A practitioner skilled in the art can adjust dosage in the range of 2-250 mg/kg and the timing of administration to produce prolonged neuroprotectant effects. Efficacious dosage amounts can be adjusted in children and adults, for establishing effective dosage levels.

hippocampal brain slices = details: evoked by 7.5 mM [K+]o, 4-amino-pyridine, bicuculline, DHPG; Stafstrom et al., 2009; cited from earlier work
ischemic rat = details: Combs et al., 1986; cited from earlier work
[6] = tested on: rats with TBI induced by CCI in fronto-parietal and temporo-parietal cortex; assay: Lateral ventricle volume by T2W MRI after TBI induced by controlled cortical impact (CCI); format: in vivo, rat; details: for proportional change in lateral ventricle volume from 1 week to 1 month following injury: in vivo T2W MRI, 2DG 40 mg/kg IP 30 min prior to CCI, then 250 mg/kg immediately after and twice daily for 2 weeks, change significantly greater for saline than 2DG (p=0.015)
Description: “Fast” rats and “slow” rats from the 9th-11th generations selected by these procedures were subjected to TBI induced by the method of controlled cortical impact (CCI) using published protocols (see Dixon et al., 1991, J. Neuro. Meth. 39: 253-262). During the induction of TBI by CCI, the rats were deeply anesthetized with isoflurane (3% for induction, 1.5-2.5% for maintenance) and were placed in a stereotaxic frame. After craniotomy with the dura intact, anesthesia was reduced to 1% isoflurane for a 5-min equilibration period and CCI was performed over temporo-parietal cortex (−1 to −6 mm from bregma, below lateral skull ridge) and fronto-parietal cortex (+5.3 to −0.3 mm from bregma, below lateral skull ridge), which are more and less likely, respectively, to damage the hippocampus and amygdala. Brain lesions were induced by a digitally-controlled contusion device using a pneumatically driven impactor with a sterilized rounded stainless steel tip (3-4 mm in diameter) which compresses the cortex with a specified velocity, depth, and dwell time varied to induce a range of injury severity (ranging from mild, with parameters of 4.0 m/s, 1.0 mm deformation, dwell time 50 mS, to severe, at 6.0 m/s, 2.5 mm deformation, dwell time 50 mS). […]
The effects of 2DG on TBI induced by CCI in fronto-parietal and temporo-parietal cortex were evaluated in “fast” kindling-susceptible and “slow” kindling-resistant rats. […]
as §3

mice = details: Stafstrom et al., 2009; cited from earlier work

Compound: O=CC[C@@H](O)[C@H](O)[C@H](O)CO [2DG, 2-deoxy-D-glucose]
- ex vivo ipsilateral hippocampal MD ([1]; ANOVA main effect for treatment p=0.002, compared with saline and sham-injured controls): restored MD measurements to the range of normal values observed in controls
- in vivo hippocampal FA laterality index (LRI) [1]: appeared to abolish the pattern of increased LRI over 1 week to 1 month in both strains
- in vivo hippocampal FA laterality index (LRI) ([1]; listed as 2-DG): reduces FA LRI in both strains
- change in in vivo ipsilateral hippocampal MD between 1 week and 6 months [1]: not for the 2DG treated groups
- change in in vivo ipsilateral hippocampal MD between 1 week and 6 months ([1]; listed as 2-DG): no significant change
- ex vivo corpus callosum (CC) FA [2]: FA was highest for fronto-parietal, 2DG treated rats
- ex vivo corpus callosum (CC) FA ([2]; listed as 2-DG): reduced in all groups except for 2-DG treated rats with fronto-parietal CCI
- ex vivo fornix FA ([2]; fronto-parietal CCI vs temporo-parietal CCI, 2-DG vs saline): reduced in all groups except for 2-DG treated rats with fronto-parietal CCI
- in vivo anterior corpus callosum (aCC) FA, change from one week to six months ([2]; paired t-test: 2DG p=0.0099, saline p=0.8396, treatment by time interaction p=0.073): increase in aCC FA by 6 months post-CCI that nearly reaches control values; also recorded: significant change from one week to six months
- brain damage initiated by seizures induced by kainic acid [3]: reduced brain damage
- slowing of progression of kindled seizures (rats [4]): 2 fold
- tolerability (rats [5]): well tolerated
- epileptic discharges evoked in hippocampal brain slices (hippocampal brain slices): acute in vitro reduction of epileptic discharges
- brain damage initiated by ischemia (ischemic rat): reduced brain damage
- ex vivo lateral ventricle volumes ([6]; brains harvested after 6 months, ANOVA treatment main effect p=0.16, strain by treatment interaction p=0.06, greater volumes for saline, most evident in slow-kindled strain): protection from gross tissue loss
- proportional change in lateral ventricle volume from 1 week to 1 month following injury [6]: reduced progressive volumetric changes
- proportional change in lateral ventricle volume from 1 week to 1 month following injury ([6]; listed as 2-DG): p<0.05 for the saline but not the 2-DG treated group
- anticonvulsant activity against seizures evoked by 6 Hz and audiogenic stimulation (mice): acute in vivo anticonvulsant activity

— patent US8633165B2, “Neuroprotective effects of 2DG in traumatic brain injury” (Wisconsin Alumni Research Foundation, priority 2010, dated 2014)
